The structures appear in SMILES notation.

IC50 and max % inh data for 32 compounds are collected here from patent US11168080B2, “Dynamin-1-like protein inhibitors” (Mitobridge, Inc., priority 2017, dated 2021).

For this assay, the target named is Drp1 (Homo sapiens (Human), UniProt O00429). The assay can be described thus: Drp1 Activity Screen: colorimetric (malachite green) GTPase assay. The format is biochemical. The conditions noted are these: 1 mM GTP, 20 min at 37° C.; for IC50: GTPase activity, 0.6 μM Drp1 preincubated with 0.1 mg/mL liposomes; for max % inh: max % inhibition of Drp1 GTPase activity, 0.6 μM Drp1, 0.1 mg/mL liposomes. As for the experimental part: The GTPase activity of Drp1 was assayed using a colorimetric assay similar to as described previously by Leonard M. et al. “Robust colorimetric assays for dynamin's basal and stimulated GTPase activities.” Methods Enzymol. […] Briefly, for GTPase assays of purified Drp1 inhibitor samples, 0.6 μM Drp1 preincubated with 0.1 mg/mL liposomes (consisting of 80% soybean lipids/20% cardiolipin) and inhibitor was added to 1 mM GTP in a microtiter plate for 20 min at 37° C. in 4 mM MgCl2, 10 mM Hepes (pH 7.0), 100 mM KCl, 1 mM DTT. Reactions were stopped by diluting with 0.5 mM EDTA. Samples were then incubated with malachite green reagent (1 mM malachite green and 50 mM ammonium molybdate in 1 N HCl), and the absorbance at 650 nm was measured. The reaction rates, IC50 values, and max % inhibition were determined using Excel/GraphPad Prism software.
Chain of Drp1 (O00429 whole entry): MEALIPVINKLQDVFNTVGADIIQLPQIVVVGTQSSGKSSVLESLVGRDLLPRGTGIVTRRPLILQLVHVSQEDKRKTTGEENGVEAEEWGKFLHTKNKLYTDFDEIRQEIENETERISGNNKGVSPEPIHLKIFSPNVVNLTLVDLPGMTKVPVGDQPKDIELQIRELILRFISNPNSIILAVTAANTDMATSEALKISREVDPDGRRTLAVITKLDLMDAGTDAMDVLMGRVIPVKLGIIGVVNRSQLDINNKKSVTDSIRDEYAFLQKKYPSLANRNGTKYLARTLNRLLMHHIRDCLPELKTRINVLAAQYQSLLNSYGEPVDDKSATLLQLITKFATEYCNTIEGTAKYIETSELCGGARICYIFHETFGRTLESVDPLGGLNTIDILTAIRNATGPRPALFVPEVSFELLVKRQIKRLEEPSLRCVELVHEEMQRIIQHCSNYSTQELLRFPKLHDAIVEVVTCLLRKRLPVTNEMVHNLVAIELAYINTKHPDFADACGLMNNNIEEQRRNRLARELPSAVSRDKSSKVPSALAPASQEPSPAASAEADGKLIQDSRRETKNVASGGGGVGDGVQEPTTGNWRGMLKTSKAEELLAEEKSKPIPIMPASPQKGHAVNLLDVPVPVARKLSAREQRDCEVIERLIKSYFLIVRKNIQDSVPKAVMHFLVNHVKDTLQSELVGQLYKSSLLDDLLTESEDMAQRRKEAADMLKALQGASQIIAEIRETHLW

The term IC50 denotes the concentration needed to halve the response being measured. High values mean lower potency, low ones higher potency. The compound `Cc1cc(C(=O)Nc2ccc(I)cc2)n(Cc2csc(N3CCCCC3)n2)c1` [Compound A-33, N-(4-iodophenyl)-4-methyl-1-((2-(piperidin-1-yl)thiazol-4-yl)methyl)-1H-pyrrole-2-carboxamide] returned an IC50 of 4.5 µM and a max % inh of 34%. `Cc1cc(C(=O)NC2CCOCC2)n(Cc2csc(N3CCCCC3)n2)c1` [Compound A-29, 4-methyl-1-((2-(piperidin-1-yl)thiazol-4-yl)methyl)-N-(tetrahydro-2H-pyran-4-yl)-1H-pyrrole-2-carboxamide] showed an IC50 of 14.4 µM. On the same count and under the same terms, the same measure for `CCN(CC)c1nc(Cn2cc(C)cc2C(=O)Nc2ccc(C(=O)O)cc2)cs1` [Compound A-9, 4-(1-((2-(diethylamino)thiazol-4-yl)methyl)-4-methyl-1H-pyrrole-2-carboxamido)benzoic Acid]: 51 µM; for `Cc1cc(C(=O)NC2CCCOC2)n(Cc2csc(N3CCCCC3)n2)c1` (stereo not drawn) [Compound A-27, 4-methyl-1-((2-(piperidin-1-yl)thiazol-4-yl)methyl)-N-(tetrahydro-2H-pyran-3-yl)-1H-pyrrole-2-carboxamide]: 9.6 µM; for `Cc1cc(C(=O)Nc2ccc(C(=O)O)cc2C)n(Cc2csc(N3CCCCC3)n2)c1` [Compound A-54, 3-Methyl-4-(4-methyl-1-((2-(piperidin-1-yl)thiazol-4-yl)methyl)-1H-pyrrole-2-carboxamido)benzoic acid]: more than 100 µM. Same read-out and setting: the same measure for `Cc1cc(C(=O)NC2CCCC2)n(Cc2csc(N3CCCCC3)n2)c1` [Compound A-25, N-cyclopentyl-4-methyl-1-((2-(piperidin-1-yl)thiazol-4-yl)methyl)-1H-pyrrole-2-carboxamide]: 5.7 µM.

`Cc1cc(C(=O)Nc2ccc(N3CCNC3=O)cc2)n(Cc2csc(N3CCCCC3)n2)c1` [Compound A-43, 4-methyl-N-(4-(2-oxoimidazolidin-1-yl)phenyl)-1-((2-(piperidin-1-yl)thiazol-4-yl)methyl)-1H-pyrrole-2-carboxamide] gave a concentration for half-maximal inhibition (IC50) of 4.3 µM. Same read-out and setting: as for `Cc1cc(C(=O)Nc2ccccn2)n(Cc2csc(N3CCCCC3)n2)c1` [Compound A-30, 4-methyl-1-((2-(piperidin-1-yl)thiazol-4-yl)methyl)-N-(pyridin-2-yl)-1H-pyrrole-2-carboxamide], the figure is 8.7 µM; as for `Cc1cc(Cn2cc(C)cc2C(=O)Nc2ccc(C(=O)O)cc2)nc(N2CCCCC2)c1` [Compound A-69, 4-(4-methyl-1-((4-methyl-6-(piperidin-1-yl)pyridin-2-yl)methyl)-1H-pyrrole-2-carboxamido)benzoic Acid], 11.7 µM. For `Cc1cc(C(=O)Nc2ccc(C(=O)O)cc2)n(Cc2csc(-c3ccccc3)n2)c1` [Compound A-17, 4-(4-methyl-1-((2-phenylthiazol-4-yl)methyl)-1H-pyrrole-2-carboxamido)benzoic Acid], inhibition was half-maximal at 3.8 µM (IC50). As for `Cc1cc(C(=O)NCc2ccc(C(=O)O)cc2)n(Cc2csc(N3CCCCC3)n2)c1` [Compound A-1, 4-((4-methyl-1-((2-(piperidin-1-yl)thiazol-4-yl)methyl)-1H-pyrrole-2-carboxamido)methyl)benzoic Acid], the IC50 was 6.4 µM. As for `Cc1cc(C(=O)Nc2ccc(C(=O)O)nc2)n(Cc2csc(N3CCCCC3)n2)c1` [Compound A-62, 5-(4-methyl-1-((2-(piperidin-1-yl)thiazol-4-yl)methyl)-1H-pyrrole-2-carboxamido)picolinic Acid], the IC50 turned out to be 17 µM. In the case of `Cc1ccc(C(=O)Nc2ccccc2)n1Cc1csc(N2CCCCC2)n1` [Compound A-39, 5-methyl-N-phenyl-1-((2-(piperidin-1-yl)thiazol-4-yl)methyl)-1H-pyrrole-2-carboxamide], 36 µM corresponded to half-maximal inhibition (IC50) and the max % inh turned out to be 26%.

As to `Cc1cc(C(=O)Nc2cccnc2)n(Cc2csc(N3CCCCC3)n2)c1` [Compound A-31, 4-methyl-1-((2-(piperidin-1-yl)thiazol-4-yl)methyl)-N-(pyridin-3-yl)-1H-pyrrole-2-carboxamide], the IC50 worked out at 7.6 µM. Consider `CC(=O)c1cc(C(=O)Nc2ccc(C(=O)O)cc2)n(Cc2csc(N3CCCCC3)n2)c1` [Compound A-56, 4-(4-acetyl-1-((2-(piperidin-1-yl)thiazol-4-yl)methyl)-1H-pyrrole-2-carboxamido)benzoic Acid], for which the IC50 was more than 100 µM. On the same count and under the same terms, as for `Cc1cc(C(=O)Nc2ccc(C(=O)O)cc2)n(Cc2nc(N3CCCCC3)sc2C)c1` [Compound A-21, 4-(4-methyl-1-((5-methyl-2-(piperidin-1-yl)thiazol-4-yl)methyl)-1H-pyrrole-2-carboxamido)benzoic Acid], the figure is 11.9 µM; as for `Cc1cc(C(=O)Nc2ccc(-c3cccnc3)cc2)n(Cc2csc(N3CCCCC3)n2)c1` [Compound A-35, 4-methyl-1-((2-(piperidin-1-yl)thiazol-4-yl)methyl)-N-(4-(pyridin-3-yl)phenyl)-1H-pyrrole-2-carboxamide], 1.2 µM. Turning to `Cc1cc(C(=O)Nc2ccc(-c3ccoc3)cc2)n(Cc2csc(N3CCCCC3)n2)c1` [Compound A-38, N-(4-(furan-3-yl)phenyl)-4-methyl-1-((2-(piperidin-1-yl)thiazol-4-yl)methyl)-1H-pyrrole-2-carboxamide], the IC50 was found to be 1.2 µM. Turning to `Cc1cc(C(=O)Nc2ccc(S(N)(=O)=O)cc2)n(Cc2csc(N3CCCCC3)n2)c1` [Compound A-8, 4-methyl-1-((2-(piperidin-1-yl)thiazol-4-yl)methyl)-N-(4-sulfamoylphenyl)-1H-pyrrole-2-carboxamide], the IC50 turned out to be 2.5 µM. `Cc1cc(C(=O)Nc2ccc(C(=O)O)cc2)n(Cc2csc(N3CCCC(C)C3)n2)c1` (stereo not drawn) [Compound A-19, 4-(4-methyl-1-((2-(3-methylpiperidin-1-yl)thiazol-4-yl)methyl)-1H-pyrrole-2-carboxamido)benzoic Acid]: the 50% inhibitory concentration (IC50) was 2.7 µM. In turn, `Cc1cc(C(=O)Nc2ccc(C(=O)O)c(F)c2)n(Cc2csc(N3CCCCC3)n2)c1` [Compound A-57, 2-fluoro-4-(4-methyl-1-((2-(piperidin-1-yl)thiazol-4-yl)methyl)-1H-pyrrole-2-carboxamido)benzoic Acid] returned an IC50 of 2.8 µM.

With `Cc1cc(C(=O)Nc2ccc(-c3nn[nH]n3)cc2)n(Cc2cccc(N3CCCCC3)n2)c1` [Compound A-67, N-(4-(1H-tetrazol-5-yl)phenyl)-4-methyl-1-((6-(piperidin-1-yl)pyridin-2-yl)methyl)-1H-pyrrole-2-carboxamide], the IC50 was determined as 2.1 µM. `O=C(Nc1ccc(CO)cc1)c1cc(Br)cn1Cc1csc(N2CCCCC2)n1` [Compound A-63, 4-bromo-N-(4-(hydroxymethyl)phenyl)-1-((2-(piperidin-1-yl)thiazol-4-yl)methyl)-1H-pyrrole-2-carboxamide]: the IC50 was 3.4 µM and the max % inh is 68%.

In the case of `Cc1cc(C(=O)Nc2ccccc2)n(Cc2csc(N3CCCCC3)n2)c1` [Compound A-15, 4-methyl-N-phenyl-1-((2-(piperidin-1-yl)thiazol-4-yl)methyl)-1H-pyrrole-2-carboxamide], inhibition was half-maximal at 2.2 µM (IC50) and the max % inh was determined as 68%. `Cc1cn(Cc2csc(N3CCCCC3)n2)c(C(=O)Nc2ccc(C(=O)O)cc2)c1C` [Compound A-68, 4-(3,4-dimethyl-1-((2-(piperidin-1-yl)thiazol-4-yl)methyl)-1H-pyrrole-2-carboxamido)benzoic acid] returned an IC50 of 30.5 µM.

Compound `O=C(Nc1ccc(-c2nn[nH]n2)cc1)c1cc(-c2ccccc2)cn1Cc1csc(N2CCCCC2)n1` [Compound A-58, N-(4-(1H-tetrazol-5-yl)phenyl)-4-phenyl-1-((2-(piperidin-1-yl)thiazol-4-yl)methyl)-1H-pyrrole-2-carboxamide] registered a half-maximal inhibitory concentration (IC50) of 2.2 µM. The same measure, in the same setting: the same measure for `Cc1cc(C(=O)NC2CCCCC2)n(Cc2csc(N3CCCCC3)n2)c1` [Compound A-26, N-cyclohexyl-4-methyl-1-((2-(piperidin-1-yl)thiazol-4-yl)methyl)-1H-pyrrole-2-carboxamide]: 1.7 µM; for `Cc1cc(C(=O)Nc2ccc(C(=O)O)cc2F)n(Cc2csc(N3CCCCC3)n2)c1` [Compound A-66, 3-fluoro-4-(4-methyl-1-((2-(piperidin-1-yl)thiazol-4-yl)methyl)-1H-pyrrole-2-carboxamido)benzoic Acid]: 7.8 µM; for `Cc1cc(C(=O)NC2COc3ccccc3C2)n(Cc2csc(N3CCCCC3)n2)c1` (stereo not drawn) [Compound A-34, N-(chroman-3-yl)-4-methyl-1-((2-(piperidin-1-yl)thiazol-4-yl)methyl)-1H-pyrrole-2-carboxamide]: 9 µM. Take `O=C(O)c1ccc(NC(=O)c2cc(Cl)cn2Cc2csc(N3CCCCC3)n2)cc1` [Compound A-70, 4-(4-chloro-1-((2-(piperidin-1-yl)thiazol-4-yl)methyl)-1H-pyrrole-2-carboxamido)benzoic Acid]: the IC50 was 2.3 µM. Same read-out and setting: as for `Cc1cc(C(=O)Nc2ccc(C(=O)O)cc2)n(Cc2csc(N3CCCCCC3)n2)c1` [Compound A-18, 4-(1-((2-(azepan-1-yl)thiazol-4-yl)methyl)-4-methyl-1H-pyrrole-2-carboxamido)benzoic Acid], the figure is 3.4 µM; as for `Cc1cc(C(=O)Nc2ccncc2)n(Cc2csc(N3CCCCC3)n2)c1` [Compound A-32, 4-methyl-1-((2-(piperidin-1-yl)thiazol-4-yl)methyl)-N-(pyridin-4-yl)-1H-pyrrole-2-carboxamide], 10.3 µM.
